According to patent US20100008898A1, “CHYMOTRYPSIN FROM LUCILIA SERICATA LARVAE AND ITS USE FOR THE TREATMENT OF WOUNDS” (priority 2006, published 2010):

Columns and labels:
ES = ES activity after incubation with proteinase inhibitors; parameters: species or system Lucilia sericata
[1] = Tryptic activity, release of AMC from fluorescent peptide substrate; format: biochemical; conditions: 1.6 μg/ml commercial trypsin vs 5 μg/ml ES
Experimental: (§1) FIG. 10 is two graphs showing the effect of ES, trypsin, chymotrypsin and trypsin/chymotrypsin mix upon fibroblast cell adhesion to a FN-coated surface, following 24 h incubation, in relation to each enzyme concentration's proteolytic activity. Such activity was assessed by monitoring the release of 7-amino-4-methylcoumarin (AMC) from synthetic peptide substrates for a. trypsin or b. chymotrypsin. Cell adhesion was measured using a firefly luciferase-based luminescent adenosine triphosphate (ATP) assay. Results were expressed as mean % cell adhesion of the control±1SD (n=3).
(§2) Chymotryptic/tryptic activity was assessed by monitoring the release of 7-amino-4-methylcoumarin (AMC) from Suc-Ala-Ala-Pro-Phe-AMC (chymotryptic) and Tosyl-Gly-Pro-Arg-AMC (tryptic). 50 μl of each fraction was incubated with 150 μl of substrate (5 μM) diluted in PBS. Samples were incubated at 37° C. for 30 minutes after which the fluorescence was measured (excitation 365 nm, emission detection 465 nm) using a Dynex MFX microplate fluorimeter. Proteolytic activity is expressed as the number of fluorescence units emitted over 30 minutes following the deduction of a time zero reading.

fibroblasts = experiment: Fibroblast adhesion to fibronectin-coated surface (ATP assay); format: cell-based; conditions: for cell adhesion: 1.6 μg/ml commercial trypsin
Experimental: as §1
The present inventors undertook a further experiment to compare the effect of the ES chymotrypsin with a commercially available bovine chymotrypsin. The effect of ES upon fibroblast adhesion to fibronectin was therefore compared with commercially available preparations of trypsin and chymotrypsin. This was achieved by seeding fibroblasts upon a fibronectin-coated surface in the presence of various concentrations of ES, commercial trypsin or commercial chymotrypsin. […] An adenosine triphosphate (ATP) assay was then applied in order to quantify the relative numbers of cells remaining upon the surface according to the concentration of ATP detected.

[2] = Chymotryptic activity, release of AMC from fluorescent peptide substrate; format: biochemical
Experimental: as §1, §2

[3] = 0.1 μg/ml commercial chymotrypsin
[4] = 0.2 μg/ml commercial chymotrypsin

## N=C(N)c1ccc(CS(=O)(=O)F)cc1 [APMSF, 4-(amidinophenyl) methane sulphonyl fluoride]
ES
  tissue remodelling and regeneration properties of the ES after incubation with inhibitor: not lost/inhibited

## trypsin [commercial trypsin]
[1]
  activity against trypsin-specific substrate relative to ES: 103.2 % of the activity of ES
fibroblasts; 24 hours incubation
  cell adhesion: 34.9 % of the control
fibroblasts; 48 hours incubation
  cell adhesion: 24.7 % of the control

## O=S(=O)(F)Cc1ccccc1 [PMSF, phenyl methanesulphonyl fluoride]
ES
  tissue remodelling and regeneration properties of the ES after incubation with inhibitor: lost or inhibited

## chymotrypsin [commercial chymotrypsin]
[2]; [3]
  activity against chymotrypsin-specific substrate relative to ES: 94.1 % of the activity of 5 μg/ml ES
[2]; [4]
  activity against chymotrypsin-specific substrate relative to ES: 204.9 % of the activity of 5 μg/ml ES
fibroblasts; [3]
  fibroblast adhesion: no ability to modify fibroblast adhesion
fibroblasts; [4]
  fibroblast adhesion: no effect upon fibroblast adhesion

B1: Soybean Trypsin Inhibitor (protein, UniProt P01070 25-205, looked up)
Trypsin inhibitor A: DFVLDNEGNPLENGGTYYILSDITAFGGIRAAPTGNERCPLTVVQSRNELDKGIGTIISSPYRIRFIAEGHPLSLKFDSFAVIMLCVGIPTEWSVVEDLPEGPAVKIGENKDAMDGWFRLERVSDDEFNNYKLVFCPQQAEDDKCGDIGISIDHDDGTRRLVVSKNKPLVVQFQKLDKESL
ES
  ability of ES to enhance fibroblast migration and degrade extra-cellular matrix proteins after incubation with inhibitor: removes the ability of the ES to enhance fibroblast migration and its ability to degrade extra-cellular matrix proteins
